# Results published in patent US20210121577A1, “FILM COATED TABLET FOR THE TREATMENT OF ACUTE PAIN” (SANOFI-AVENTIS DEUTSCHLAND GMBH, priority 2014, published 2021).
# Test system: post-operative dental pain
# Assay: Clinical trial in patients with post-operative dental pain (model for acute pain), randomized double-blind parallel-group
# Assay type: in vivo
# Settings: single dose, ibuprofen 400 mg, caffeine 100 mg or fixed combination
# Procedure: Male and female patients between the ages of 18 and 55 years, scheduled for the extraction of 3 to 4 unsound wisdom teeth, with at least 2 extracted molars were recruited; the baseline of dental pain intensity must be at least moderate on a verbal evaluation scale and at least 5 on a numerical evaluation scale ranging from 0 to 10.
# The pain intensity (PI) was evaluated in a diary before administration and at 0.25, 0.5, 0.75, 1, 1.5, 2, 3, 4, 5, 6, 7 and 8 hours after the first dose of the study medication using an 11-point numerical rating scale (NPRS) from 0=“no pain” to 10=“worst possible pain”.
# The pain relief (PAR) beginning from pain onset was evaluated in a patient diary using a 5-point rating scale (VRS) (0=no pain relief; 1=a little pain relief; 2=some pain relief; 3=much pain relief; 4=complete pain relief) at the same time points as for the PI evaluation.
# As soon as a patient needed an emergency medication or a second dose of the medication within less than 8 hours, PI and PAR were evaluated before the emergency medication or second dose was administered.
# The time-weighted sum of pain relief (PAR) and the pain intensity difference (PID) relative to baseline between 0 and 8 hours is determined as follows:
# Higher values of the SPRID0-8 h likewise indicate greater benefit for the patient.
compound,measurement,setting,value
"CC(C)Cc1ccc(C(C)C(=O)O)cc1 (racemic) [Ibuprofen, (+/−) 2-(p-isobutylphenyl)-propionic acid]",Median duration of action,Kaplan-Meyer analysis,7.1 h
same,Adjusted Mean SPRID0-8 h value (time-weighted sum of pain relief and pain intensity difference from 0 to 8 hours),"study stage 1, primary endpoint, higher = greater benefit",40.165
same,Adjusted Mean SPRID0-2 h value (time-weighted sum of PAR and PID from 0 to 2 hours),"study stage 1, secondary endpoint",6.990
